Earlier results as cited in patent US4987122A, “Peptide compounds and medical method of use thereof” (Nycomed AS, priority 1986, dated 1991).
[ ]: non-standard residue; d: D form. pGlu = O=C1CC[C@@H](C(=O)O)N1

Assays:
granulopoiesis = conditions: as reported in the European patent application
[1] = subjected to freezing and thawing; reversed by treatment with mercaptoethanol

Substance	activity of the synthetic compound (granulopoiesis)	activity after freezing and thawing [1]
pyroGlu-Asp-Asp-Cys-LysOH ([pGlu]DDCK-OH; SMILES NCCCC[C@H](NC(=O)[C@H](CS)NC(=O)[C@H](CC(=O)O)NC(=O)[C@H](CC(=O)O)NC(=O)[C@@H]1CCC(=O)N1)C(=O)O) [synthetic compound with the structure postulated for the natural granulopoiesis factor]	inactive	
pyroGlu-Glu-Asp-Cys-LysOH ([pGlu]EDCK-OH; SMILES NCCCC[C@H](NC(=O)[C@H](CS)NC(=O)[C@H](CC(=O)O)NC(=O)[C@H](CCC(=O)O)NC(=O)[C@@H]1CCC(=O)N1)C(=O)O)		stimulatory activity
